Assay [1] has as its system 3T3-L1 adipocytes. The assay is described as follows: 2-deoxy-glucose uptake in differentiated mature 3T3-L1 adipocytes. It is filed as cell-based, rodent. On the procedure:
(§1) 3T3-L1 preadipocytes were cultured in Dulbecco's minimal essential medium (DMEM) supplemented with 100 IU/mL penicillin, 100 µg/mL streptomycin, 1% nonessential amino acid and 10% calf serum in 5% CO2 and 95% Air at 37° C. Once the cells have become fully grown, differentiation was induced by treating the cells with differentiation inducers (DMEM containing 0.5 mM 3-isobutyl-1-methylxanthane (IBMX), 1 µM dexamethasone, […], and 10% fetal bovine serum) for two days. The cells were re-fed with DMEM supplemented with 10 µg/mL insulin and 10% FBS for another two days, and then changed to 10% FBS/DMEM without insulin every 2 days for 4-6 days. At this stage, near 90% of the cells expressed the adipocyte phenotype and were ready for the experiments. Before commencing the experiments, the 3T3-L1 cells were rinsed with PBS solution first, and then cultured overnight in the serum-free and insulin-free 0.2% BSA/DMEM culture medium, so as to remove interferences from both serum and insulin.
For the experiment of testing the effects of triterpene compounds on enhancing glucose uptake by 3T3-L1 adipocytes, 3T3-L1 preadipocytes were cultured on 6-well culture dishes, and allowed to grow fully therein before being subjected to differentiation by a differentiation-inducing agent. Once the 3T3-L1 cells became matured and differentiated into adipocytes after 7-12 days, the cells were used for testing glucose uptake. Said adipocytes were firstly placed in a serum-free culture medium (0.2% BSA/DMEM) overnight, followed by cultivation for 2-6 hours in serum-free cell culture media containing different concentrations of triterpene compounds, and then rinsed once with PBS solution before undergoing cultivation in KRP buffer (20 mM HEPES, 137 mM NaCl, 4.7 mM KCl, 1.2 mM MgSO4, 1.2 mM KH2PO4, 2.5 mM CaCl2, and 2 mM pyruvate, pH 7.4 and 0.2% BSA) at 37° C. for 3 hours. Finally, 0.2 μCi/mL of 2-deoxy-D-[^14C]-glucose (2-DG, Amersham Biosciences, Little Chalfont, Bucks, U.K) and 0.2 ml of non-radioactive glucose buffer derived from 0.1 mM 2-DG were used as a substitute for KRP buffer in order to begin the experiment on glucose uptake. After allowing the experiment to run for […], the cells were removed and rinsed with PBS solution to terminate the intake of glucose. Subsequently, the cells were dissolved in 0.2 ml of 0.2% SDS, and 10 μL, of the solution with dissolved cells was transferred into UniFilter plates (Perkim-Elmer, Wellesley, Mass., USA) with filtering bases and dried in a vacuum oven at 37° C., in which each well was added with 30 μL of counting solution, and then analyzed by using a micro-disk liquid scintillation analyzer (TopCount, Packard NXT, Packard BioScience Company, Meriden, Conn., USA). The glucose concentration accumulated in the cells was calculated, and divided by the protein concentration, so as to obtain a glucose uptake rate indicated as nanomoles of glucose uptake in every microgram of cell proteins at every minute (nmol/min/mg). The protein concentration was determined by using the standard Bicinchoninic acid (BCA) protein assay kit (Pierce, Rockford, Ill., USA). The uptake of non-specific glucose was determined by adding 0.2 μCi of L-[14C]-glucose, and then used to substract from the value obtained by the analyzer so as to get a value for the uptake of specific glucose. Therefore, the effects of different concentrations of triterpene compounds on the glucose uptake by 3T3-L1 adipocytes could be determined.

The next assay deals with in vitro adipocytes. The conditions noted are these: cited from earlier work.
In the next assay the test system is mice. The conditions noted are these: cited from earlier work.
A further assay deals with 3T3-L1 preadipocytes. The assay is described as follows: 2-deoxy-glucose uptake in 3T3-L1 preadipocytes. It is filed as cell-based, rodent. How it is done:
as §1, with “Before commencing the experiments, the 3T3-L1 cells were rinsed with PBS solution first, and then cultured overnight in the serum-free and insulin-free 0.2% BSA/DMEM culture medium, so as to remove interferences from both serum and insulin.” left out
For the experiment of testing the effects of triterpene compounds on enhancing glucose uptake by 3T3-L1 adipocytes, 3T3-L1 preadipocytes were cultured on 6-well culture dishes, and allowed to grow fully therein before being subjected to differentiation by a differentiation-inducing agent. […] The glucose concentration accumulated in the cells was calculated, and divided by the protein concentration, so as to obtain a glucose uptake rate indicated as nanomoles of glucose uptake in every microgram of cell proteins at every minute (nmol/min/mg). […]

Assay [2] deals with GLUT4. In words: GLUT4 translocation to plasma membrane, centrifugation fractions and Western blot. Format: cell-based, rodent. The conditions noted are these: 2 hours. How it is done:
In the mechanism of insulin enhancing glucose uptake by adipocytes or muscle cells, the translocation of GLUT4 from intracellular organelles to plasma membrane (PM) actually plays a vital rol therein, thus the effects of triterpene compounds on enhancing the translocation of GLUT4 to plasma membrane in 3T3-L1 adipocytes were tested here. The differentiated and mature 3T3-L1 adipocytes were cultured overnight in a serum-free cell culture medium, and then further cultured in serum-free cell culture media containing different concentrations of triterpene compounds for 2 hours. This was followed by high-speed centrifugation at different rotation speeds (16,000 g-200,000 g) in order to separate the cellular plasma membrane fraction from the low density microsome (LDM) [Liu, L. Z. et. al.; Mol. Biol. Cell 17, (5), 2322-2330, 2006]. Western blot analysis was performed by using a monoclonal antibody for GLUT4, so as to observe whether there are any effects from different concentrations of triterpene compounds on the translocation of GLUT4 from cellular LDM to PM in 3T3-L1 adipocytes.
(A western blot detects proteins with antibodies after separation by electrophoresis.)

The test system of assay [3] is 3T3-L1 adipocytes. In words: release of glycerol from 3T3-L1 adipocytes (glycerol assay kit). Particulars: 24 hours after administering different doses of PA. It is filed as cell-based, rodent. How it is done:
(§2) For the experiment of testing the effects of triterpene compounds on the accumulation of triglycerides and the release of glycerol in 3T3-L1 adipocytes, the differentiated and mature 3T3-L1 adipocytes were cultivated overnight in a serum-free cell culture medium, and then further cultivated in serum-free cell culture media containing different concentrations of triterpene compounds for 24 hours. The culture media were collected and tested for the release of glycerol by using a glycerol assay kit (Randox Laboratories, Antrim, UK), to determine whether different concentrations of triterpene compounds had any effects on the release of glycerol from lipid breakdown in 3T3-L1 adipocytes. The level of triglycerides in the adipocytes were determined by Oil-Red O staining (Ramirez-Zacarias, J. L. et. al.; Histochemistry 97, (6), 493-497, 1992). The oil droplets formed by the accumulation of lipids in the cells were stained, rinsed twice with 60% isopropanol, and then extracted in 100% isopropanol before being quantified at the absorbance of 490 nm. The readings were compared with that from the adipocytes without being given triterpene compounds, in order to evaluate the effects of different concentrations of triterpene compounds on the accumulation of triglycerides in the adipocytes.

For assay [4], the system named is GLUT4. In words: GLUT4 protein expression by Western blot in 3T3-L1 adipocytes. It is filed as cell-based, rodent. Particulars: different doses of PA for 24 hours. How it is done:
For the experiment of testing the effects of triterpene compounds on enhancing the GLUT protein expression in 3T3-L1 adipocytes, the aforesaid differentiated and mature 3T3-L1 adipocytes were cultured overnight in a serum-free cell culture medium, and then further cultured in serum-free cell culture media containing different concentrations of triterpene compounds for 24 hours. This was followed by rinsing the cells with PBS solution, and allowing the cells to lyse in 0.2 mL lysis buffer (1% NP-40, 150 mM NaCl, 0.1% SDS, 50 mM Tris-HCl pH 7.6, 10 mM EDTA, 0.5% deoxycholate, 1 mM PMSF, 1 mM Na3VO4, 10 mM NaF, 10 mM β-glycerophosphate, 10 g/mL protease inhibitor and phosphotase inhibitor cocktails) for 30 min at 4° C. An equal amount of protein from each sample was separated by sodium dodecyl sulfate (SDS)-10% polyacrylamide gel electrophoresis (PAGE) and transblotted onto polyvinylidene difluoride (PVDF) membranes (Millipore, Bedford, Mass., USA). […] Each sample of proteins was treated with a chemiluminescence kit (ECL, Amersham, U.K.) before being exposed and processed into X-ray film, and then quantitatively analyzed by using computer software.

Assay [5] has as its system 3T3-L1 adipocytes with suppressed GLUT4 expression (shG4-30). In words: glucose uptake in adipocytes with suppressed mRNA expression of GLUT4 (shG4-30). It is filed as cell-based, rodent. Particulars: different doses of PA. The text has this: A viral carrier (TRCN0000043630 shRNA, Genomics Research Center, Academia Sinica, R.O.C.) carrying GLUT4-inhibiting RNA was used to infect the 3T3-L1 preadipocytes (shG4-30), in order to create a gene expression having consistent inhibition of GLUT4 expression, and the cell strain was allowed to further differentiate, from which the differentiated adipocytes were used for the experiments.
For the experiment of testing the effects of triterpene compounds on enhancing glucose uptake by 3T3-L1 adipocytes, 3T3-L1 preadipocytes were cultured on 6-well culture dishes, and allowed to grow fully therein before being subjected to differentiation by a differentiation-inducing agent. […] Subsequently, the cells were dissolved in 0.2 ml of 0.2% SDS, and 10 μL, of the solution with dissolved cells was transferred into UniFilter plates (Perkim-Elmer, Wellesley, Mass., USA) with filtering bases and dried in a vacuum oven at 37° C., in which each well was added with 30 μL of counting solution, and then analyzed by using a micro-disk liquid scintillation analyzer (TopCount, Packard NXT, Packard BioScience Company, Meriden, Conn., USA). The glucose concentration accumulated in the cells was calculated, and divided by the protein concentration, so as to obtain a glucose uptake rate indicated as nanomoles of glucose uptake in every microgram of cell proteins at every minute (nmol/min/mg). […]

In assay [6] the test system is GLUT4. In words: GLUT4 mRNA expression by real-time Q-PCR in 3T3-L1 adipocytes. It is filed as cell-based, rodent. The conditions noted are these: 1 μM of PA, 24 hours. How it is done:
Real-time Q-PCR was performed in order to evaluate mRNA expression of GLUT proteins in 3T3-L1 adipocytes under different concentrations of triterpene compounds. Firstly, the fully differentiated 3T3-L1 adipocytes were mixed with different concentrations of triterpene compounds and left for 24 hours, before removing the cell culture medium and using the Trizol buffer (Invitrogen, Irvine, Calif., USA) to obtain total RNA from the cells. Afterwards, 1 μg of RNA sample was taken therefrom, and a High-Capacity cDNA Reverse Transcription Kit (Applied Biosystems, Darmstadt, Germany) was used to reverse transcribe mRNA in the sample into cDNA. Primers were specifically designed for GLUT1, GLUT4, and β-actin, and the SYBR Green Q-PCR analyzer (Applied Biosystems, Foster City, Calif., USA) was used to expand the gene for detection (Glut1 & 4) and reference gene (β-actin), before relative gene expression values were calculated by the ΔΔCT method using the StepOne v2.0 software (Applied Biosystems).

Another assay deals with HA-GLUT4-GFP. The assay is described as follows: GLUT4 translocation to plasma membrane, HA-GLUT4-GFP fluorescence ratio. It is filed as cell-based, rodent. Particulars: 1.0 μM of PA, 2 hours; rhodamine/GFP fluorescence ratio.
Assay [7] concerns 3T3-L1 adipocytes. The assay is described as follows: accumulation of triglycerides in 3T3-L1 adipocytes (Oil-Red O staining). Format: cell-based, rodent. Particulars: 24 hours after administering different doses of PA. How it is done: as §2
The mark [8] stands for this setting: 0.01 μM, two hours after giving the compound, versus untreated control.

Consider 6 compounds from patent US9084798B2, “Use of lanostane and Poria extract in treating diabetes” (Sinphar Tian-Li Pharmaceutical Co., Ltd (Hangzhou), priority 2009, dated 2015).

For the compound insulin [reference compound], the “effect on glucose uptake” value in the assay on 3T3-L1 adipocytes [1] (100 nM insulin) is “effective for increasing glucose uptake”.
`CC(C)=CCC[C@@H](C(=O)O)[C@H]1CC[C@@]2(C)C3=CC[C@H]4C(C)(C)[C@@H](O)CC[C@]4(C)C3=CC[C@]12C` [dehydrotrametenolic acid]: the effective concentration in the assay on in vitro adipocytes is reported as 10^−5 M. Besides, in the assay with mice (mice), the effective dose was 110 mg/kg. The “effective dose for use in the human body” value in the assay on mice (researchers' conclusion from the mouse dose) is reported as “more than 700 mg”.
With `O=C(CCc1ccc(O)cc1)c1c(O)cc(O)cc1O` [phloretin (PT), phloretin, reference compound], the “glucose uptake after phloretin (FIG. 4)” value in the assay with 3T3-L1 preadipocytes and in the assay on 3T3-L1 adipocytes [1] (adipocytes) was “significantly inhibited” each time.
Regarding `C=C(CC[C@@H](C(=O)O)[C@H]1[C@H](O)C[C@@]2(C)C3=C(CC[C@]12C)[C@@]1(C)CC[C@H](O)C(C)(C)[C@@H]1CC3)C(C)C` [TA, tumulosic acid], in the assay on 3T3-L1 adipocytes [1] (setting [8]), the “glucose uptake increased to” value is given as 142.5%.
Take `C=C(CC[C@@H](C(=O)O)[C@H]1[C@H](O)C[C@@]2(C)C3=C(CC[C@]12C)[C@@]1(C)CC[C@H](OC(C)=O)C(C)(C)[C@@H]1CC3)C(C)C` [PA, pachymic acid]: the “enhancement of glucose uptake (FIG. 4)” value in the assay on 3T3-L1 preadipocytes was “not for preadipocytes”; in the assay on 3T3-L1 adipocytes [1] (differentiated adipocytes), “only effective for enhancing glucose uptake in differentiated adipocytes”. The entries for the “amount of GLUT4 in the plasma membrane increased to (FIG. 8A)” value with GLUT4 [2] (0.01 μM of PA) and with GLUT4 [2] (1 μM of PA) were 141% and 328%, respectively. Further, the “release of glycerol lowered to” value in the assay on 3T3-L1 adipocytes [3] is given as “approximately 70 % of the original level”. For the same compound, the “protein expression of GLUT4 (FIG. 5)” value in the assay with GLUT4 [4] was “effective for enhancing the protein expression of GLUT4”. Further, the “glucose uptake in adipocytes with low expression of GLUT4 (FIG. 7B)” value in [5] is reported as “did not greatly enhance the glucose uptake”. For the same compound, in the assay on GLUT4 [6], the “gene expression of GLUT4 elevated to (FIG. 6)” value came to 228%. In addition, the “translocation of GLUT4 to plasma membrane elevated (FIG. 8B)” value with HA-GLUT4-GFP came out at 2.71 fold. Besides, the “accumulation of triglycerides (FIG. 9)” value with 3T3-L1 adipocytes [7] is “exceeded 137%”. The “glucose uptake increased to” value in the assay on 3T3-L1 adipocytes [1] (setting [8]) came out at 165.89%; in the assay with 3T3-L1 adipocytes [1] (PA at 1 μM, acting two hours) it was 209.84%.
Take `C=C(CC[C@@H](C(=O)O)[C@H]1[C@H](O)C[C@@]2(C)C3=CC[C@H]4C(C)(C)C(=O)CC[C@]4(C)C3=CC[C@]12C)C(C)C` [PPA, polyporenic acid C]: the “glucose uptake increased to” value in the assay with 3T3-L1 adipocytes [1] (setting [8]) is reported as 147.9%.
